Data from the supplement of paper PMC4862054.
“And” between values parts separate entries of the source, which are not always exact repeats. Equal entries are not always repeated.

Key:
Settings in all cases: incubation time: 72 h
Hs578T [1] = assay: normalised viability (% of control), CellTiter-Blue; higher = more viable cells (100 = DMSO, 0 = benzethonium chloride kill control)
Protocol: (§1)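 DSRT, CellTiter-Blue viability, 72 h incubation. Signal is normalised to DMSO and benzethonium chloride controls. Value is the normalised response at dose 1.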

MDA-MB-468 [2] = assay: as above
Protocol: as §1

SK-BR-3 [3] = assay: as above
Protocol: as §1

HCC1143 [4] = assay: as above
Protocol: as §1

CAL-85-1 [5] = assay: as above
Protocol: as §1

MFM-223 [6] = assay: as above
Protocol: as §1

HCC1937 [7] = assay: as above
Protocol: as §1

BT-474 [8] = assay: as above
Protocol: as §1

MDA-MB-231 [9] = assay: as above
Protocol: as §1

HCC1599 [10] = assay: as above
Protocol: as §1

CAL-120 [11] = assay: as above
Protocol: as §1

MDA-MB-436 [12] = assay: as above
Protocol: as §1

MDA-MB-453 [13] = assay: as above
Protocol: as §1

CAL-51 [14] = assay: as above
Protocol: as §1

CAL-148 [15] = assay: as above
Protocol: as §1

BT-549 [16] = assay: as above
Protocol: as §1

DU-4475 [17] = assay: as above
Protocol: as §1

Hs578T [18] = assay: normalised response (% of control), CellTiter-Glo; higher = more viable cells (100 = DMSO, 0 = benzethonium chloride kill control)
How it was run: (§2)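 Compound was dispensed into 384-well plates at 5 concentrations in 10-fold steps spanning a 10,000-fold range specific to that compound. Breast cancer cell lines were added as 20 µl suspension and left for 72 h before CellTox Green fluorescence (485/520 nm) and then CellTiter-Glo luminescence, read after 10 min at room temperature. Each reported value is the normalised signal at one concentration, with 0.1 % DMSO set at 100 and a positive kill control at 0 on each plate.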

MDA-MB-468 [19] = assay: as above
How it was run: as §2

SK-BR-3 [20] = assay: as above
How it was run: as §2

HCC1143 [21] = assay: as above
How it was run: as §2

CAL-85-1 [22] = assay: as above
How it was run: as §2

MFM-223 [23] = assay: as above
How it was run: as §2

HCC1937 [24] = assay: as above
How it was run: as §2

BT-474 [25] = assay: as above
How it was run: as §2

MDA-MB-231 [26] = assay: as above
How it was run: as §2

HCC1599 [27] = assay: as above
How it was run: as §2

MCF-10A = assay: as above
How it was run: as §2

CAL-120 [28] = assay: as above
How it was run: as §2

HDQ-P1 [29] = assay: as above
How it was run: as §2

MDA-MB-436 [30] = assay: as above
How it was run: as §2

MDA-MB-453 [31] = assay: as above
How it was run: as §2

CAL-51 [32] = assay: as above
How it was run: as §2

CAL-148 [33] = assay: as above
How it was run: as §2

BT-549 [34] = assay: as above
How it was run: as §2

DU-4475 [35] = assay: as above
How it was run: as §2

HDQ-P1 [36] = assay: normalised viability (% of control), CellTiter-Blue; higher = more viable cells (100 = DMSO, 0 = benzethonium chloride kill control)
Protocol: as §1

SMILES	normalised viability (Hs578T [1])	normalised viability (MDA-MB-468 [2])	normalised viability (SK-BR-3 [3])	normalised viability (HCC1143 [4])	normalised viability (CAL-85-1 [5])	normalised viability (MFM-223 [6])	normalised viability (HCC1937 [7])	normalised viability (BT-474 [8])	normalised viability (MDA-MB-231 [9])	normalised viability (HCC1599 [10])	normalised viability (CAL-120 [11])	normalised viability (MDA-MB-436 [12])	normalised viability (MDA-MB-453 [13])	normalised viability (CAL-51 [14])	normalised viability (CAL-148 [15])	normalised viability (BT-549 [16])	normalised viability (DU-4475 [17])	normalised response (Hs578T [18]) [%]	normalised response (MDA-MB-468 [19]) [%]	normalised response (SK-BR-3 [20]) [%]	normalised response (HCC1143 [21]) [%]	normalised response (CAL-85-1 [22]) [%]	normalised response (MFM-223 [23]) [%]	normalised response (HCC1937 [24]) [%]	normalised response (BT-474 [25]) [%]	normalised response (MDA-MB-231 [26]) [%]	normalised response (HCC1599 [27]) [%]	normalised response (MCF-10A) [%]	normalised response (CAL-120 [28]) [%]	normalised response (HDQ-P1 [29]) [%]	normalised response (MDA-MB-436 [30]) [%]	normalised response (MDA-MB-453 [31]) [%]	normalised response (CAL-51 [32]) [%]	normalised response (CAL-148 [33]) [%]	normalised response (BT-549 [34]) [%]	normalised response (DU-4475 [35]) [%]	normalised viability (HDQ-P1 [36]) [%]
CC(=O)O[C@@]12CO[C@@H]1C[C@H](O)[C@@]1(C)C(=O)[C@H](O)C3=C(C)[C@@H](OC(=O)[C@H](O)[C@@H](NC(=O)OC(C)(C)C)c4ccccc4)C[C@@](O)([C@@H](OC(=O)c4ccccc4)[C@H]21)C3(C)C [Docetaxel] (0.1 nM)	99.7% and 96.5%	96.8% and 100%	103% and 105%	107% and 111%	101% and 106%	100% and 102%	81.5% and 83.6%	104% and 90.1%	110% and 94.6%	119% and 123%	96.5% and 94.7%	91.9% and 106%	118% and 98.6%	104% and 92.1%	107% and 110%	92.9% and 96.3%	109% and 110%	93.2	106	99.3	96.3	102	96.9	94.5	98.8	102	101	98	104	96.2	105	99.7	94.5	90.8	104	96.7	
O=NN(CCCl)C(=O)NCCCl [Carmustine] (1 nM)	134%	106%	99.8%	90.5%	87.8%	93.5%	88.8%	87.5%	133%	97%	94.2%	75.7%	108%	107%	115%	103%	120%	100	98.1	90.5	97.8	94.4	94.2	97.6	97	98.2	103	87.3	100	99.3	80	109	87.1	89.3	97.1	103	111
Nc1nc2[nH]cnc2c(=S)[nH]1 [Thioguanine] (1 nM)	136%	104%	99.9%	95.3%	98.1%	98.4%	90.2%	100%	92.8%	110%	97.5%	101%	104%	104%	107%	98.8%	105%	101	94.5	94.2	98.9	92.8	94.1	92.8	98.1	96.2	105	101	93.3	98.4	94	98.1	77.6	95.3	104	96.7	111
CC(=O)c1c(C)c2cnc(Nc3ccc(N4CCNCC4)cn3)nc2n(C2CCCC2)c1=O (1 nM)	89.5%	109%	93.1%	100%	87.9%	88.5%	94.7%	108%	94.6%	105%	87.1%	94.1%	106%	104%	107%	102%	99%																				79.2
O=C1CN2Cc3c(ccc(Cl)c3Cl)N=C2N1 [Anagrelide] (1 nM)	119%	101%	96.1%	90.1%	88.7%	98.9%	68.3%	122%	102%	87.8%	84.6%	80.8%	105%	105%	103%	113%	109%	100	103	104	100	99.5	98.8	97.1	90.6	97.2	105	94	92.8	110	86	109	110	90.2	101	102	112
COc1cc2c(cc1O)CC[C@@H]1[C@@H]2CC[C@]2(C)[C@@H](O)CC[C@@H]12 [2-methoxyestradiol] (1 nM)	105%	103%	89.3%	88.9%	91.6%	102%	87.5%	102%	88.8%	101%	92.1%	115%	95.5%	112%	102%	96.4%	107%	106	104	87.2	97.8	102	95.9	98.8	96.7	104	104	92.5	94.9	97.1	101	106	122	97.3	103	99	97.1
CC(C)(C)c1cnc(CSc2cnc(NC(=O)C3CCNCC3)s2)o1 [SNS-032] (1 nM)	104%	104%	101%	85.9%	92.7%	93.1%	103%	101%	97.7%	101%	86.2%	113%	103%	113%	113%	113%	99%	97.6	92	90.8	97.3	105	92	90.8	92.2	97.5	96.3	95.5	91.2	95	84.1	99.2	86.2	92.2	101	98.2	102
C[C@]12CC[C@@H]3c4ccc(OC(=O)N(CCCl)CCCl)cc4CC[C@H]3[C@@H]1CC[C@@H]2O [Estramustine] (0.099 nM)	94.3%	107%	114%	104%	108%	106%	91.8%	93.4%	93.3%	84.8%	111%	106%	98.9%	84%	109%	92.4%	89.9%																				106
C[C@]1(O)C[C@@H](c2nc(-c3ccc4ccc(-c5ccccc5)nc4c3)c3c(N)nccn32)C1 [OSI-906] (1 nM)	101%	100%	91.1%	96.8%	100%	95.6%	92.3%	82.9%	83.7%	100%	97.4%	85%	85.7%	95.6%	94.6%	95.7%	89%																				74.5
COc1cc(F)c(F)c(Nc2ccc(I)cc2F)c1NS(=O)(=O)C1(C[C@H](O)CO)CC1 [RDEA119] (1 nM)	95.4%	95.8%	106%	98.8%	108%	92.5%	80.9%	79.7%	77.4%	93%	98.7%	104%	84.5%	91.8%	88.7%	97.3%	99.3%																				79.4
